The target of data set [1] is T1, Angiotensin-converting enzyme (Oryctolagus cuniculus, UniProt P12822).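 Note: enzymatic inhibition of angiotensin-converting enzyme measured with FAPGG as the substrate; in other assays of this panel Not Active means under 50% inhibition at 10 µM.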
T1 sequence (P12822 whole entry): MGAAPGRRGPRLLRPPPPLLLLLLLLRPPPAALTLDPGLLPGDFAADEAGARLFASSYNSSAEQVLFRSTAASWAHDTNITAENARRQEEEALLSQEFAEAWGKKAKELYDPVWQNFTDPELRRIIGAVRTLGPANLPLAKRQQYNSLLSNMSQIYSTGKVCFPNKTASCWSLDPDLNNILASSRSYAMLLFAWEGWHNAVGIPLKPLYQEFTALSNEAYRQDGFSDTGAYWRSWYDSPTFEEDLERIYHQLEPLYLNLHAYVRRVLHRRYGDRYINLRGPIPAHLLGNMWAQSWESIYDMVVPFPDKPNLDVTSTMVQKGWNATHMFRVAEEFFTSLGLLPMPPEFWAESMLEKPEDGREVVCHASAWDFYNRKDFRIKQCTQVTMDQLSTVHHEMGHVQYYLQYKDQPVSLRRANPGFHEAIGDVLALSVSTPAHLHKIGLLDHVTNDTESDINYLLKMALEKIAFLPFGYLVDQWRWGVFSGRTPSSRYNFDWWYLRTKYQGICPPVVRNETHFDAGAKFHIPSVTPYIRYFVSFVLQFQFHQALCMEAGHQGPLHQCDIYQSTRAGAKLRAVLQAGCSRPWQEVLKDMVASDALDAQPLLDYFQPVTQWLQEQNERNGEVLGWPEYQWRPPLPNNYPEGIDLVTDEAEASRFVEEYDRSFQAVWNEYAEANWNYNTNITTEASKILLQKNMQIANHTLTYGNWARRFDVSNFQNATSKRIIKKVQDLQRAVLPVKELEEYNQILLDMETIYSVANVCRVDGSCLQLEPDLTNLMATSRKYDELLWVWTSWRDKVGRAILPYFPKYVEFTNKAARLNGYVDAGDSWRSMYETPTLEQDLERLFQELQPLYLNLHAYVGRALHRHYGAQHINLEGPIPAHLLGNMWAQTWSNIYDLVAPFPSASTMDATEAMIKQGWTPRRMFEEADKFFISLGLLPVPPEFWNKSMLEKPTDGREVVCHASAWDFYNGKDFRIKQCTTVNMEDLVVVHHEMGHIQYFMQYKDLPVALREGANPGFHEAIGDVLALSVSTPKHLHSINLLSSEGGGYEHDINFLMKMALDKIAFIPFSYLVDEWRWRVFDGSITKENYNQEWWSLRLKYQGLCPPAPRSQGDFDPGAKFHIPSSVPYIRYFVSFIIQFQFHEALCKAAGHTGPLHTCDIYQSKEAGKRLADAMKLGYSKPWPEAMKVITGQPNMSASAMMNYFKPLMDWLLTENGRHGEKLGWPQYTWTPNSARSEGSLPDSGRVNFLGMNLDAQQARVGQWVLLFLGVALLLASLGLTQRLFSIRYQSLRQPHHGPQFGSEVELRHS
Type of data set: tissue-based, Lung.

A short description of data set [2]: DRUGMATRIX: Phosphodiesterase PDE3 enzyme inhibition (substrate: [3H]cAMP + cAMP). Type of data set: tissue-based, Homo sapiens. To be noted: platelet, Not Active = under 50% inhibition at 10 µM.
For data set [3], the target named is T2, Nitric oxide synthase, inducible (Mus musculus, UniProt P29477).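 Note: inhibition of iNOS enzyme activity measured with L-arginine as substrate; in other assays of this panel Not Active means under 50% inhibition at 10 µM.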
T2 sequence (P29477 whole entry): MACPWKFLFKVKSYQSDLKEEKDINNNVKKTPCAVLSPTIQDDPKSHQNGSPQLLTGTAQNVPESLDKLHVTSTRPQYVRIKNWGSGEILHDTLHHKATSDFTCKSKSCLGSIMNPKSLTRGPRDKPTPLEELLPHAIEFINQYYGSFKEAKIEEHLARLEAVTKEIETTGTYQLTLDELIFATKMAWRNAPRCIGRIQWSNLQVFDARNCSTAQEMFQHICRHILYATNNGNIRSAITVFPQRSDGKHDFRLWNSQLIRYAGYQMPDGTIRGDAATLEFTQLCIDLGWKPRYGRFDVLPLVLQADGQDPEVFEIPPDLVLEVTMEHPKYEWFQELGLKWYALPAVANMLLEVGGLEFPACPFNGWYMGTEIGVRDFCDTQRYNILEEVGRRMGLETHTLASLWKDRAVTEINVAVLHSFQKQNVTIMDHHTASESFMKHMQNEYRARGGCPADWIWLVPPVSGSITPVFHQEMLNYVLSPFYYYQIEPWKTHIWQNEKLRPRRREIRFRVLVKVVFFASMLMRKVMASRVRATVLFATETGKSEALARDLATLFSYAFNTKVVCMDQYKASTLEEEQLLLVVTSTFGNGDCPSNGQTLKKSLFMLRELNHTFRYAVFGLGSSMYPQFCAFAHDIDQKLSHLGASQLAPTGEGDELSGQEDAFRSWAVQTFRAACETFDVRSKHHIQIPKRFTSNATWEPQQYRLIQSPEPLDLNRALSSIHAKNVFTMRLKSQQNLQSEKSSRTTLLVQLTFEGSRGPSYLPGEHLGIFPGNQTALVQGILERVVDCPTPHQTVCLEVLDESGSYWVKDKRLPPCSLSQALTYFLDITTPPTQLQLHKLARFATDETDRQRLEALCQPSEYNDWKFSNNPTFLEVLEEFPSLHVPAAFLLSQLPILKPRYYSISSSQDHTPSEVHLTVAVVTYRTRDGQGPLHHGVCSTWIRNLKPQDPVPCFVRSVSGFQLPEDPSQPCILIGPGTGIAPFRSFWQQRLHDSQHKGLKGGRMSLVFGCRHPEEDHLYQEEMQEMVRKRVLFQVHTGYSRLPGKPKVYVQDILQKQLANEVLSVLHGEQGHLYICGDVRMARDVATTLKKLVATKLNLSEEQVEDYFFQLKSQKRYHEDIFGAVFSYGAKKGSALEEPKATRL
On the set-up: species or system Escherichia coli.

Data set [4] has as its target Voltage-gated inwardly rectifying potassium channel KCNH2 (Homo sapiens, UniProt Q12809). To be noted: hek293. Note: in other assays of this panel Not Active means under 50% inhibition at 10 µM.
Data set [5] addresses T3, Calcitonin receptor (Homo sapiens, UniProt P30988).
T3 sequence (P30988 whole entry): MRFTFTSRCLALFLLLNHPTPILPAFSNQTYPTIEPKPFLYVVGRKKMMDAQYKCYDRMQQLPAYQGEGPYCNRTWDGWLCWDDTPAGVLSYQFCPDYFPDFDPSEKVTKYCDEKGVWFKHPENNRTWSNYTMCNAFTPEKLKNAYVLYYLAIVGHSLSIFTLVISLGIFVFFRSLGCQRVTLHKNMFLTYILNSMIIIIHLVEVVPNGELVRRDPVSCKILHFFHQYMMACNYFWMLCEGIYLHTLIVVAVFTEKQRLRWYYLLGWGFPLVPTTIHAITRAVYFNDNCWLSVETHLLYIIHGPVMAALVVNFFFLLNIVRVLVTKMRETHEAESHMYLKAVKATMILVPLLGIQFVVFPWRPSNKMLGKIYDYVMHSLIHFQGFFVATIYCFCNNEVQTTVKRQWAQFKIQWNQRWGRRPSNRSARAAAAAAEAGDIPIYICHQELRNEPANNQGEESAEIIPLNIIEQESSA
The format is cell membranes, Membrane. The settings on record: t47d.

Drawing on ChEMBL document CHEMBL1909046, “DrugMatrix in vitro pharmacology data”, this text covers IC50 and Ki for 16 molecules.

Voltage-gated inwardly rectifying potassium channel KCNH2, sequence (Q12809 whole entry): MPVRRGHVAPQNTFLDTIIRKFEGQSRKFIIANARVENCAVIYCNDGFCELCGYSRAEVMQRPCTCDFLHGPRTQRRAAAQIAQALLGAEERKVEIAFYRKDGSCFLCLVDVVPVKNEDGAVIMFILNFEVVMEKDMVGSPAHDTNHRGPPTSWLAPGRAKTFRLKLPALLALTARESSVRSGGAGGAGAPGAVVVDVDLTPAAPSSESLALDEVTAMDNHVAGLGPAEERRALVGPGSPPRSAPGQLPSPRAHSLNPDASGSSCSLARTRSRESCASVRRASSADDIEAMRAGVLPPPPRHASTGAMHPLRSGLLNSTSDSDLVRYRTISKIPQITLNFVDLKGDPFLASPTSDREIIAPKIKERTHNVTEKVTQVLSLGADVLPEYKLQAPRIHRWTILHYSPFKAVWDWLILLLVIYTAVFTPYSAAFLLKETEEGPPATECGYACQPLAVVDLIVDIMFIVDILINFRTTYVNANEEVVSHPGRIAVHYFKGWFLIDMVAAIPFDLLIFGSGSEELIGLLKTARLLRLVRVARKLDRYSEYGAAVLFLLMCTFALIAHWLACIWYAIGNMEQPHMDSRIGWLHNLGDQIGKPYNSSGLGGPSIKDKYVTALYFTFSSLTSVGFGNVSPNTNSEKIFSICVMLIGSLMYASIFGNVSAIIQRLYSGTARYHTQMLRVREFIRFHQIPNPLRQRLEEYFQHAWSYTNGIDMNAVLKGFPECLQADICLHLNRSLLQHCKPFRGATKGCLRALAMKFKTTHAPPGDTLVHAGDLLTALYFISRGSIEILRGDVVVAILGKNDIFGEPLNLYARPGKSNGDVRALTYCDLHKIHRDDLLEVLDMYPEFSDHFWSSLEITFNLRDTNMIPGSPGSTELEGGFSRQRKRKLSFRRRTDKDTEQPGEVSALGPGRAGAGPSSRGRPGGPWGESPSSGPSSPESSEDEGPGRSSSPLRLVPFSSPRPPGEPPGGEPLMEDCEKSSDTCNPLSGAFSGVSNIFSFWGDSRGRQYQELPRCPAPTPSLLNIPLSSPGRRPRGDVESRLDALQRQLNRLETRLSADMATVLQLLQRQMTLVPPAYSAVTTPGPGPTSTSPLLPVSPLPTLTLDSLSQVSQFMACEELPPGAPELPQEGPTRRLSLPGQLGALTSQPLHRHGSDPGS

As for `CC1=C(CC(=O)O)c2cc(F)ccc2/C1=C\c1ccc([S+](C)[O-])cc1` (centres undefined), the IC50 result in data set [1], in data set [2], in data set [3], in data set [4] and in data set [5] was “Not Active” throughout. In addition, the Ki entry in data set [2] and in data set [4] was “Not Active” each time.
Turning to `N[C@H](CSC(=S)NCc1ccccc1)C(=O)O`, the IC50 result in data set [1], in data set [2], in data set [3], in data set [4] and in data set [5] was “Not Active” each time. Moreover, the Ki entry in data set [2] and in data set [4] was “Not Active” each time.
On to `CC(=O)N[C@@H]1[C@H](Oc2c3cc4cc2Oc2ccc(cc2Cl)[C@@H](O[C@@H]2O[C@@H](CO)[C@@H](O)[C@H](O)[C@@H]2NC(C)=O)[C@@H]2NC(=O)[C@H](NC(=O)[C@@H]4NC(=O)[C@H]4NC(=O)[C@@H](Cc5ccc(c(Cl)c5)O3)NC(=O)[C@H](N)c3ccc(O)c(c3)Oc3cc(O)cc4c3)c3ccc(O)c(c3)-c3c(O[C@H]4O[C@H](CO)[C@@H](O)[C@@H](O)[C@@H]4O)cc(O)cc3[C@@H](C(=O)O)NC2=O)O[C@@H](CO)[C@@H](O)[C@@H]1O`, for which the IC50 entry in data set [1], in data set [2], in data set [3], in data set [4] and in data set [5] was “Not Active” in each case. The Ki result in data set [2] and in data set [4] was “Not Active” throughout.
Consider `Clc1ccc2c(c1)C(N1CCNCC1)=Nc1ccccc1O2` [AMOXAPINE], for which the IC50 entry in data set [1], in data set [3], in data set [4] and in data set [5] was “Not Active” throughout. Moreover, the Ki entry in data set [4] is listed as “Not Active”.
As to `COc1cc2c(c(OC)c1OC)-c1ccc(OC)c(=O)cc1[C@@H](NC(C)=O)CC2` [COLCHICINE], the IC50 result in data set [1], in data set [3], in data set [4] and in data set [5] was “Not Active” each time. Moreover, the Ki entry in data set [4] is “Not Active”.
As for `CN1CCC(=C2c3ccccc3C=Cc3ccccc32)CC1` [CYPROHEPTADINE], the concentration for half-maximal inhibition (IC50) entry in data set [1], in data set [3] and in data set [5] was “Not Active” each time.
Regarding `CC/C(=C(/CC)c1ccc(O)cc1)c1ccc(O)cc1` [DIETHYLSTILBESTROL], the half-inhibitory concentration (IC50) result in data set [1], in data set [3], in data set [4] and in data set [5] was “Not Active” each time. For the same molecule, the Ki result in data set [4] was “Not Active”.
Regarding `CC(=O)N1CCN(c2ccc(OCC3COC(Cn4ccnc4)(c4ccc(Cl)cc4Cl)O3)cc2)CC1` (centres undefined) [KETOCONAZOLE], the IC50 entry in data set [1], in data set [2], in data set [3] and in data set [5] was “Not Active” in each case. For the same molecule, the Ki result in data set [2] is on record as “Not Active”.
For the molecule `C=CCN1CC[C@]23c4c5ccc(O)c4O[C@H]2C(=O)CC[C@@]3(O)[C@H]1C5` [NALOXONE], the IC50 entry in data set [1], in data set [3], in data set [4] and in data set [5] was “Not Active” each time. Also, in data set [4], the Ki entry is on record as “Not Active”.
For the molecule `COCCOC(=O)C1=C(C)NC(C)=C(C(=O)OC(C)C)C1c1cccc([N+](=O)[O-])c1` (centres undefined) [NIMODIPINE], the concentration for half-maximal inhibition (IC50) result in data set [1], in data set [2], in data set [3], in data set [4] and in data set [5] was “Not Active” each time. Besides, the Ki entry in data set [2] and in data set [4] was “Not Active” throughout.
For the molecule `CC(C)NCC(O)COc1cccc2ccccc12` (centres undefined) [PROPRANOLOL], the IC50 result in data set [1], in data set [3], in data set [4] and in data set [5] was “Not Active” in each case. Besides, the Ki result in data set [4] is “Not Active”.
As to `COCCCOc1ccnc(C[S+]([O-])c2nc3ccccc3[nH]2)c1C` (centres undefined) [RABEPRAZOLE], the concentration for half-maximal inhibition (IC50) result in data set [1] is “Not Active”; in data set [2] (read-out: IC50) it was 2280 nM; in data set [3] it was “Not Active”; in data set [4] it was “Not Active”; in data set [5] it was “Not Active”. The Ki entry in data set [4] is recorded as “Not Active”.
As for `O=C(c1ccc(OCCN2CCCCC2)cc1)c1c(-c2ccc(O)cc2)sc2cc(O)ccc12` [RALOXIFENE], the IC50 entry in data set [1], in data set [2], in data set [3], in data set [4] and in data set [5] was “Not Active” in each case. In addition, the Ki result in data set [2] and in data set [4] was “Not Active” throughout.
On to `CC(C)c1nc(CN(C)C(=O)N[C@H](C(=O)N[C@@H](Cc2ccccc2)C[C@H](O)[C@H](Cc2ccccc2)NC(=O)OCc2cncs2)C(C)C)cs1` [RITONAVIR], for which the IC50 result in data set [1], in data set [2], in data set [3] and in data set [5] was “Not Active” in each case. Also, the Ki entry in data set [2] was “Not Active”.
As for `CC(C)(C)c1ccc(C(O)CCCN2CCC(C(O)(c3ccccc3)c3ccccc3)CC2)cc1` (centres undefined) [TERFENADINE], the IC50 entry in data set [1], in data set [2], in data set [3] and in data set [5] was “Not Active” throughout. For the same molecule, in data set [2], the Ki result is reported as “Not Active”.
As to `C[C@@H](N)[C@H]1CC[C@H](C(=O)Nc2ccncc2)CC1` [Y-27632], the IC50 entry in data set [1], in data set [2], in data set [3] and in data set [5] was “Not Active” throughout. Further, in data set [2], the Ki result was “Not Active”.
